Legend:
S. aureus (ATCC 29213) = assay: In vitro uptake of 18F-tracers by bacteria; assay type: cell-based, Staphylococcus aureus
Experimental: (§1) In vitro evaluation of ^18F-tracers was conducted according to our established procedure. Briefly, bacteria were incubated overnight at 37 °C, subcultured into a fresh medium at an initial OD600 of 0.05, and then allowed to reach the mid log phase (OD600 ∼ 0.4). The cultures were subsequently incubated with ^18F-tracers (final concentration: 0.1 MBq/mL) at 37 °C for 90 min. Subsequently, 300 μL aliquots of these cultures were centrifuged at 13,200 rpm for 6 min. The resulting pellets were washed with 300 μL of phosphate-buffered saline (PBS). The radioactivity of the pellets and supernatants was measured using a gamma counter. Uptake values were normalized to colony-forming units (CFUs).

Enterococcus faecalis = assay: In vitro uptake of 18F-tracers by bacteria; assay type: cell-based; conditions: E. faecalis; 37 °C, 90 min
Experimental: as §1

Listeria monocytogenes = assay: In vitro uptake of 18F-tracers by bacteria; assay type: cell-based; conditions: L. monocytogenes; 37 °C, 90 min
Experimental: as §1

[1] = tested on: Staphylococcus epidermidis; assay: In vitro uptake of 18F-tracers by bacteria; assay type: cell-based; conditions: S. epidermidis; 37 °C, 90 min
Experimental: as §1

Streptococcus agalactiae = assay: In vitro uptake of 18F-tracers by bacteria; assay type: cell-based; conditions: S. agalactiae; 37 °C, 90 min
Experimental: as §1

Streptococcus pyogenes = assay: In vitro uptake of 18F-tracers by bacteria; assay type: cell-based; conditions: S. pyogenes; 37 °C, 90 min
Experimental: as §1

[2] = tested on: methicillin-resistant S. aureus (MRSA) clinical isolates; assay: In vitro uptake in clinical isolates; assay type: cell-based, Staphylococcus aureus; conditions: P < 0.0001
Experimental: as §1

[3] = tested on: methicillin-sensitive S. aureus (MSSA) clinical isolates; assay: In vitro uptake in clinical isolates; assay type: cell-based, Staphylococcus aureus; conditions: vs S. aureus ATCC 29213; P < 0.0001
Experimental: as §1

[4] = Human radiation dosimetry extrapolated from murine biodistribution; assay type: in vivo
Experimental: A dosimetry study was carried out in female CBA/J mice (n = 4, 9–11 weeks). Human organ and whole-body effective doses were extrapolated from the mice biodistribution data according to our previous report. For each organ, absorbed and equivalent doses (mGy/MBq or mSv/MBq), as well as whole-body effective doses (mSv/MBq), were calculated from murine data. Dose estimations were performed with OLINDA software (v1.1 and 2.0 with ICRP 60 and 103 tissue weighting factors). ,

[5] = Radio-HPLC analysis of urine samples (metabolic stability in vivo); conditions: urine from healthy mice 90 min after i.v. administration
Experimental: 7 Dosimetry extrapolated to humans and metabolic stability of [^18F]-FNT. (A) Estimated absorbed dose (mGy/MBq) extrapolated from murine biodistribution data using ICRP103 (adult female, 60 kg). (B–D) Representative radio-HPLC profiles of [^18F]-FDS (B), [^18F]-FNT (C), and urine samples collected from healthy mice 90 min following [^18F]-FNT administration via i.v. (D).

OC[C@@H](O)[C@@H](O)[C@H](O[C@H]1O[C@H](CO)[C@@H](O)[C@H](O)[C@H]1O)[C@@H]([18F])CO [[18F]FNT, 2-deoxy-2-[18F]fluoro-D-nigeritol]
uptake in the presence of nonradioactive [19F]FNT (blocking) (S. aureus (ATCC 29213); S. aureus ATCC 29213, 1 mM [19F]FNT, P < 0.0001): significantly reduced
in vitro uptake (S. aureus (ATCC 29213); S. aureus, 37 °C, 90 min): moderate uptake
uptake in heat-killed S. aureus (S. aureus (ATCC 29213); heat-killed bacteria, P < 0.0001): no uptake
in vitro uptake (Enterococcus faecalis): moderate uptake
in vitro uptake (Listeria monocytogenes): low
in vitro uptake [1]: moderate uptake
in vitro uptake (Streptococcus agalactiae): low
in vitro uptake (Streptococcus pyogenes): low
higher uptake in clinically isolated MRSA compared with [18F]FMT ([2]; in vitro): approximately 4 fold
uptake in clinical MRSA isolates compared to the reference MSSA strain ([2]; vs S. aureus ATCC 29213): higher uptake
uptake in clinical MSSA isolates compared to the reference MSSA strain [3]: higher uptake
calculated human effective dose ([4]; ICRP 60): 0.0163 ± 0.0012 mSv/MBq
kidneys dose ([4]; ICRP 60 model): 0.0753 ± 0.0307 mSv/MBq
urinary bladder dose ([4]; ICRP 60 model): 0.1783 ± 0.0314 mSv/MBq
calculated human effective dose ([4]; ICRP 103): 0.0126 ± 0.0005 mSv/MBq
kidneys dose ([4]; ICRP 103 model): 0.0751 ± 0.0307 mSv/MBq
urinary bladder dose ([4]; ICRP 103 model): 0.1518 ± 0.0262 mSv/MBq
estimated organ-absorbed doses overall ([4]; overall, called low): > 0.02 mSv/MBq
metabolic stability in vivo (urine radio-HPLC) [5]: remained intact, with no degradation observed

From paper PMC12728616, “Regioselective Glycosylation of Fluorine-18-Labeled Sorbitol for Enhanced Bacterial Detection In Vivo Using PET” (JACS Au, 2025)
